Where “and” joins values, the source holds several entries; their conditions need not be identical. Identical values can stand only once. Toxic doses and inconclusive results are not listed.
System: P388 leukemia ip, CD2F1 mice, survival T/C
Experiment: NCI In Vivo Anticancer Drug Screen. Data for tumor model P388 Leukemia (intraperitoneal) in CD2F1 (CDF1) mice
Conditions: endpoint: median survival time, higher = longer survival
Outline: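 Mice carrying the transplanted tumor received test compound or vehicle. Survival was recorded in each group, and the value is the treated-group measurement divided by that of the vehicle-treated control group.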

[1] = dose: 12.5 mg/kg/injection, schedule: Q01DX009 (ip), vehicle: saline
[2] = dose: 25.0 mg/kg/injection, schedule: Q01DX009 (ip), vehicle: saline
[3] = dose: 100.0 mg/kg/injection, schedule: Q01DX009 (ip), vehicle: saline with Tween-80
[4] = dose: 100.0 mg/kg/injection, schedule: Q04DX003 (ip), vehicle: saline with Tween-80
[5] = dose: 200.0 mg/kg/injection, schedule: Q04DX003 (ip), vehicle: saline with Tween-80
[6] = dose: 400.0 mg/kg/injection, schedule: Q04DX003 (ip), vehicle: saline with Tween-80
[7] = dose: 50.0 mg/kg/injection, schedule: Q01DX005 (ip), vehicle: Klucel (hydroxypropylcellulose) (HPC)
[8] = dose: 100.0 mg/kg/injection, schedule: Q01DX005 (ip), vehicle: Klucel (hydroxypropylcellulose) (HPC)
[9] = dose: 200.0 mg/kg/injection, schedule: Q01DX005 (ip), vehicle: Klucel (hydroxypropylcellulose) (HPC)
[10] = dose: 50.0 mg/kg/injection, schedule: Q01DX005 (ip), vehicle: saline with Tween-80
[11] = dose: 100.0 mg/kg/injection, schedule: Q01DX005 (ip), vehicle: saline with Tween-80
[12] = dose: 200.0 mg/kg/injection, schedule: Q01DX005 (ip), vehicle: saline with Tween-80
[13] = dose: 12.5 mg/kg/injection, schedule: Q01DX005 (ip), vehicle: saline with Tween-80
[14] = dose: 25.0 mg/kg/injection, schedule: Q01DX005 (ip), vehicle: saline with Tween-80
[15] = dose: 25.0 mg/kg/injection, schedule: Q01DX005 (ip), vehicle: Klucel (hydroxypropylcellulose) (HPC)
[16] = dose: 50.0 mg/kg/injection, schedule: Q01DX009 (ip), vehicle: saline with Tween-80
[17] = dose: 200.0 mg/kg/injection, schedule: Q01DX009 (ip), vehicle: saline with Tween-80
[18] = dose: 100.0 mg/kg/injection, schedule: Q04DX002 (ip), vehicle: saline with Tween-80

CCCCCCCCCCN1CCC(N2CCCCC2)CC1
T/C [1]: 98 % of control | T/C [2]: 100 % of control | T/C (dose: 50.0 mg/kg/injection, schedule: Q01DX009 (ip), vehicle: saline): 99 % of control | T/C (dose: 100.0 mg/kg/injection, schedule: Q01DX009 (ip), vehicle: saline): 93 % of control

Cc1ccc(S(=O)(=O)OCC2(COCc3ccccc3)CCCCC2=O)cc1 (stereo not drawn)
T/C (dose: 50.0 mg/kg/injection, schedule: Q01DX009 (ip), vehicle: Klucel (hydroxypropylcellulose) (HPC)): 106 % of control | T/C (dose: 100.0 mg/kg/injection, schedule: Q01DX009 (ip), vehicle: Klucel (hydroxypropylcellulose) (HPC)): 92 % of control | T/C (dose: 200.0 mg/kg/injection, schedule: Q01DX009 (ip), vehicle: Klucel (hydroxypropylcellulose) (HPC)): 95 % of control

O=c1c2ccccc2sc2cccc(Sc3ccccc3)c12
T/C [3]: 95 % of control | T/C [4]: 95 % of control | T/C [5]: 90 % of control | T/C [6]: 90 % of control

O=C1OC(c2ccccc2)=N/C1=C\c1ccc(Br)cc1
T/C [7]: 93 % of control | T/C [8]: 87 % of control and 95 % of control | T/C [9]: 87 % of control

CCOc1c(N=Nc2ccc(OC)cc2)c(C)nn1C(=S)S
T/C (dose: 60.0 mg/kg/injection, schedule: Q01DX005 (ip), vehicle: Klucel (hydroxypropylcellulose) (HPC)): 115 % of control | T/C (dose: 120.0 mg/kg/injection, schedule: Q01DX005 (ip), vehicle: Klucel (hydroxypropylcellulose) (HPC)): 112 % of control | T/C (dose: 240.0 mg/kg/injection, schedule: Q01DX005 (ip), vehicle: Klucel (hydroxypropylcellulose) (HPC)): 100 % of control

Nc1c(C(=O)NCCc2ccccc2)c2nc3c(C(=O)NCCc4ccccc4)cccc3oc-2cc1=O
T/C [10]: 96 % of control | T/C [11]: 89 % of control | T/C [12]: 105 % of control

CCCCCCCCCCCC[S+](C)CCCCCCCC (stereo not drawn)
T/C (dose: 0.78 mg/kg/injection, schedule: Q01DX005 (ip), vehicle: saline with Tween-80): 111 % of control and 117 % of control | T/C (dose: 1.56 mg/kg/injection, schedule: Q01DX005 (ip), vehicle: saline with Tween-80): 122 % of control | T/C (dose: 3.13 mg/kg/injection, schedule: Q01DX005 (ip), vehicle: saline with Tween-80): 124 % of control

CCCn1cc2c3c(cccc31)C1C=C(C)CN(C)C1C2 (stereo not drawn)
T/C (dose: 6.25 mg/kg/injection, schedule: Q01DX005 (ip), vehicle: saline with Tween-80): 100 % of control and 107 % of control | T/C [13]: 99 % of control and 100 % of control and 116 % of control | T/C [14]: 98 % of control and 105 % of control and 108 % of control | T/C [11]: 117 % of control

O=C(Nc1ncn[nH]1)c1ccccc1O
T/C [7]: 99 % of control | T/C [8]: 91 % of control | T/C [9]: 86 % of control

CN1CN(C)CN(Cc2ccc([N+](=O)[O-])cc2)C1
T/C [15]: 93 % of control | T/C [7]: 97 % of control | T/C [8]: 94 % of control | T/C [9]: 91 % of control

CCC(C)C(NC(=O)C(F)(F)F)C(=O)O (stereo not drawn)
T/C [16]: 98 % of control | T/C [3]: 98 % of control | T/C [17]: 103 % of control

Cc1ccc(S(=O)(=O)NC(CC(N)=O)C(=O)O)cc1 (stereo not drawn)
T/C (dose: 25.0 mg/kg/injection, schedule: Q01DX009 (ip), vehicle: other): 101 % of control | T/C (dose: 50.0 mg/kg/injection, schedule: Q01DX009 (ip), vehicle: other): 100 % of control | T/C (dose: 100.0 mg/kg/injection, schedule: Q01DX009 (ip), vehicle: other): 101 % of control | T/C (dose: 200.0 mg/kg/injection, schedule: Q01DX009 (ip), vehicle: other): 100 % of control | T/C (dose: 400.0 mg/kg/injection, schedule: Q01DX009 (ip), vehicle: other): 98 % of control

C=CCOc1cc2c(cc1C(C)c1ccc(OC)c(C)c1)OCO2 (stereo not drawn)
T/C [10]: 100 % of control | T/C [11]: 95 % of control | T/C [12]: 120 % of control

CCC(=O)N(C)C(C)C(=O)OC1CC(=O)N(C)c2cc(cc(OC)c2Cl)CC2(C)OC2/C=C/C(OC)C2(O)CC(OC(=O)N2)C(C)C2OC12C (stereo not drawn)
T/C (dose: 25.0 micrograms/kg/injection, schedule: Q01DX009 (ip), vehicle: saline + alcohol): 124 % of control | T/C (dose: 50.0 micrograms/kg/injection, schedule: Q01DX009 (ip), vehicle: saline + alcohol): 120 % of control and 124 % of control | T/C (dose: 100.0 micrograms/kg/injection, schedule: Q01DX009 (ip), vehicle: saline + alcohol): 124 % of control | T/C (dose: 800.0 micrograms/kg/injection, schedule: Q01DX009 (ip), vehicle: saline + alcohol): 152 % of control

O=S(=O)(CCNCCCCC1CCCCC1)SCCNCCCCC1CCCCC1
T/C (dose: 6.25 mg/kg/injection, schedule: Q01DX005 (ip), vehicle: Klucel (hydroxypropylcellulose) (HPC)): 100 % of control | T/C (dose: 12.5 mg/kg/injection, schedule: Q01DX005 (ip), vehicle: Klucel (hydroxypropylcellulose) (HPC)): 101 % of control | T/C [15]: 95 % of control

O=C(CCCN1CCC(C(=O)c2ccc(Cl)cc2)CC1)c1ccc(F)cc1
T/C (dose: 3.0 mg/kg/injection, schedule: Q01DX009 (ip), vehicle: Klucel (hydroxypropylcellulose) (HPC)): 99 % of control | T/C (dose: 6.0 mg/kg/injection, schedule: Q01DX009 (ip), vehicle: Klucel (hydroxypropylcellulose) (HPC)): 97 % of control | T/C (dose: 12.0 mg/kg/injection, schedule: Q01DX009 (ip), vehicle: Klucel (hydroxypropylcellulose) (HPC)): 108 % of control

S=c1ncnc2c1ccc1[nH][nH]cc12
T/C [18]: 88 % of control | T/C (dose: 200.0 mg/kg/injection, schedule: Q04DX002 (ip), vehicle: saline with Tween-80): 92 % of control | T/C (dose: 400.0 mg/kg/injection, schedule: Q04DX002 (ip), vehicle: saline with Tween-80): 107 % of control

C[n+]1c2ccccc2c(Cc2ccccc2)c2ccccc21
T/C [13]: 108 % of control | T/C [14]: 106 % of control | T/C [10]: 100 % of control and 94 % of control

O=C(NC(C(=O)NO)C(NO)c1ccccc1)c1ccccc1 (stereo not drawn)
T/C [10]: 103 % of control | T/C [11]: 102 % of control | T/C [12]: 102 % of control

CS(=O)C/C(=C/CCCl)c1ccc(F)cc1 (stereo not drawn)
T/C [16]: 101 % of control | T/C [3]: 105 % of control | T/C [17]: 96 % of control

COc1ccc(NC(=O)C2C(=O)N(c3ccc(OC)cc3)C(=O)/C2=N/NC(N)=S)cc1 (stereo not drawn)
T/C [13]: 101 % of control | T/C [14]: 100 % of control | T/C [10]: 100 % of control and 90 % of control

CN(C)c1ccc(C(O)(Cc2cnc3ccccc3c2)c2ccc(N(C)C)cc2)cc1
T/C [4]: 95 % of control | T/C [5]: 103 % of control | T/C [6]: 99 % of control

C(=N\Nc1nc2ccccc2s1)/c1ccc(/C=N/Nc2nc3ccccc3s2)cc1
T/C [16]: 105 % of control | T/C [3]: 105 % of control | T/C [17]: 102 % of control

COC1CC(OC2CCC3(C)C(=CCC4C3C(OC(C)=O)C(OC(=O)CC(C)C)C3(C)C(C(C)=O)CCC43O)C2)OC(C)C1OC1CC(OC)C(OC2CC(OC)C(OC3OC(C)C(OC4OC(CO)C(O)C(O)C4O)C(OC)C3O)C(C)O2)C(C)O1 (stereo not drawn)
T/C (dose: 4.13 mg/kg/injection, schedule: Q01DX005 (ip), vehicle: Klucel (hydroxypropylcellulose) (HPC)): 95 % of control | T/C (dose: 8.25 mg/kg/injection, schedule: Q01DX005 (ip), vehicle: Klucel (hydroxypropylcellulose) (HPC)): 101 % of control | T/C (dose: 16.5 mg/kg/injection, schedule: Q01DX005 (ip), vehicle: Klucel (hydroxypropylcellulose) (HPC)): 101 % of control

CC(C)(C)C(=O)C=C(C(F)(F)F)C(F)(F)F
T/C (dose: 6.25 mg/kg/injection, schedule: Q01DX009 (ip), vehicle: saline): 91 % of control | T/C [1]: 86 % of control | T/C [2]: 113 % of control

CCCCSc1ccc(NN=O)nc1
T/C (dose: 1.56 mg/kg/injection, schedule: Q01DX009 (ip), vehicle: water): 118 % of control | T/C (dose: 6.25 mg/kg/injection, schedule: Q01DX009 (ip), vehicle: water): 151 % of control

NC(C(=O)O)C1=CCCCCC1 (stereo not drawn)
T/C [15]: 100 % of control | T/C [7]: 101 % of control | T/C [8]: 106 % of control | T/C [9]: 101 % of control

c1ccc(-c2ccccc2C2=NC2)c(C2=NC2)c1
T/C (dose: 25.0 mg/kg/injection, schedule: Q04DX002 (ip), vehicle: saline with Tween-80): 99 % of control | T/C (dose: 50.0 mg/kg/injection, schedule: Q04DX002 (ip), vehicle: saline with Tween-80): 100 % of control | T/C [18]: 99 % of control and 94 % of control

CC(C)C1C(=O)N(c2ccccc2)N(C)C1C (stereo not drawn)
T/C (dose: 100.0 mg/kg/injection, schedule: Q04DX003 (ip), vehicle: Klucel (hydroxypropylcellulose) (HPC)): 100 % of control | T/C (dose: 200.0 mg/kg/injection, schedule: Q04DX003 (ip), vehicle: Klucel (hydroxypropylcellulose) (HPC)): 104 % of control

Source: PubChem BioAssay AID330 (DTP/NCI, 2004)
